Laboratory results as given in patent US12077503B2, “Substituted cyclic amides and their use as herbicides” (FMC CORPORATION, priority 2015, dated 2024).

Key:
Assay type in all cases: in vivo
[1] = test system: ivy-leaved morning glory (Ipomoea hederacea); assay: Test G Post-Emergence Protocol; conditions: Ipomoea, post-emergence, 312 h, read-out: Morningglory, Ivy-leaved damage rating; for pest or weed control at 15.625 g/ha: 15.625 g ai/ha, evaluated after 13 days (100=total damage to plant; 0=no damage to plant); for pest or weed control at 62.5 g/ha: 62.5 g ai/ha; for pest or weed control at 62.5 g/ha / pest or weed control at 250 g/ha: evaluated after 13 days, 100=total damage to plant, 0=no damage to plant; for pest or weed control at 250 g/ha: 250 g ai/ha
Summary of the method: (§1)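 Values are percent visual injury at 13 days after treatment (0 none, 100 total). Treatment was a post-emergence spray at 15.625, 62.5 or 250 g/ha on 8-day-old pot plants kept at 24/16 °C.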

[2] = test system: giant foxtail (Setaria faberi); assay: Test G Post-Emergence Protocol; conditions: Setaria faberi, post-emergence, 312 h, read-out: Foxtail, Giant damage rating; for pest or weed control at 15.625 g/ha: 15.625 g ai/ha, evaluated after 13 days (100=total damage to plant; 0=no damage to plant); for pest or weed control at 62.5 g/ha: 62.5 g ai/ha; for pest or weed control at 62.5 g/ha / pest or weed control at 250 g/ha: evaluated after 13 days, 100=total damage to plant, 0=no damage to plant; for pest or weed control at 250 g/ha: 250 g ai/ha
Summary of the method: as §1

[3] = test system: barnyardgrass (Echinochloa crus-galli); assay: Test G Post-Emergence Protocol; conditions: Echinochloa crus-galli, post-emergence, 312 h, read-out: Barnyardgrass damage rating; for pest or weed control at 15.625 g/ha: 15.625 g ai/ha, evaluated after 13 days (100=total damage to plant; 0=no damage to plant); for pest or weed control at 62.5 g/ha: 62.5 g ai/ha; for pest or weed control at 62.5 g/ha / pest or weed control at 250 g/ha: evaluated after 13 days, 100=total damage to plant, 0=no damage to plant; for pest or weed control at 250 g/ha: 250 g ai/ha
Summary of the method: as §1

[4] = test system: velvetleaf (Abutilon theophrasti); assay: Test G Post-Emergence Protocol; conditions: Abutilon theophrasti, post-emergence, 312 h, read-out: Velvetleaf damage rating; for pest or weed control at 15.625 g/ha: 15.625 g ai/ha, evaluated after 13 days (100=total damage to plant; 0=no damage to plant); for pest or weed control at 62.5 g/ha: 62.5 g ai/ha; for pest or weed control at 62.5 g/ha / pest or weed control at 250 g/ha: evaluated after 13 days, 100=total damage to plant, 0=no damage to plant; for pest or weed control at 250 g/ha: 250 g ai/ha
Summary of the method: as §1

corn (Zea mays) [5] = assay: Test G Post-Emergence Protocol; conditions: Zea mays, post-emergence, 312 h, read-out: Corn damage rating; for plant injury at 15.625 g/ha: 15.625 g ai/ha, evaluated after 13 days (100=total damage to plant; 0=no damage to plant); for plant injury at 62.5 g/ha: 62.5 g ai/ha; for plant injury at 62.5 g/ha / plant injury at 250 g/ha: evaluated after 13 days, 100=total damage to plant, 0=no damage to plant; for plant injury at 250 g/ha: 250 g ai/ha
Summary of the method: as §1

[6] = test system: redroot pigweed (Amaranthus retroflexus); assay: Test G Post-Emergence Protocol; conditions: Amaranthus retroflexus, post-emergence, 312 h, read-out: Pigweed, Redroot damage rating; for pest or weed control at 15.625 g/ha: 15.625 g ai/ha, evaluated after 13 days (100=total damage to plant; 0=no damage to plant); for pest or weed control at 62.5 g/ha: 62.5 g ai/ha; for pest or weed control at 62.5 g/ha / pest or weed control at 250 g/ha: evaluated after 13 days, 100=total damage to plant, 0=no damage to plant; for pest or weed control at 250 g/ha: 250 g ai/ha
Summary of the method: as §1

[7] = test system: ivy-leaved morning glory (Ipomoea hederacea); assay: Test G Pre-Emergence Protocol; conditions: Ipomoea, pre-emergence, 312 h, evaluated after 13 days; for pest or weed control at 15.625 g/ha: 15.625 g ai/ha; for pest or weed control at 15.625 g/ha / pest or weed control at 250 g/ha: read-out: Morningglory, Ivy-leaved damage rating (100=total damage to plant; 0=no damage to plant); for pest or weed control at 62.5 g/ha: 62.5 g ai/ha, 100=total damage to plant, 0=no damage to plant, read-out: Morningglory, Ivy-leaved damage rating; for pest or weed control at 250 g/ha: 250 g ai/ha
Summary of the method: (§2)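 Scores are visual damage ratings from 0 (no damage) to 100 (total plant kill), taken 13 days after treatment. Compound was sprayed one day post-sowing at 15.625, 62.5 or 250 g/ha in 50:50 acetone/water with 0.5% Tween 20.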

[8] = test system: giant foxtail (Setaria faberi); assay: Test G Pre-Emergence Protocol; conditions: Setaria faberi, pre-emergence, 312 h, evaluated after 13 days; for pest or weed control at 15.625 g/ha: 15.625 g ai/ha; for pest or weed control at 15.625 g/ha / pest or weed control at 250 g/ha: read-out: Foxtail, Giant damage rating (100=total damage to plant; 0=no damage to plant); for pest or weed control at 62.5 g/ha: 62.5 g ai/ha, 100=total damage to plant, 0=no damage to plant, read-out: Foxtail, Giant damage rating; for pest or weed control at 250 g/ha: 250 g ai/ha
Summary of the method: as §2

[9] = test system: barnyardgrass (Echinochloa crus-galli); assay: Test G Pre-Emergence Protocol; conditions: Echinochloa crus-galli, pre-emergence, 312 h, evaluated after 13 days; for pest or weed control at 15.625 g/ha: 15.625 g ai/ha; for pest or weed control at 15.625 g/ha / pest or weed control at 250 g/ha: read-out: Barnyardgrass damage rating (100=total damage to plant; 0=no damage to plant); for pest or weed control at 62.5 g/ha: 62.5 g ai/ha, 100=total damage to plant, 0=no damage to plant, read-out: Barnyardgrass damage rating; for pest or weed control at 250 g/ha: 250 g ai/ha
Summary of the method: as §2

[10] = test system: velvetleaf (Abutilon theophrasti); assay: Test G Pre-Emergence Protocol; conditions: Abutilon theophrasti, pre-emergence, 312 h, evaluated after 13 days; for pest or weed control at 15.625 g/ha: 15.625 g ai/ha; for pest or weed control at 15.625 g/ha / pest or weed control at 250 g/ha: read-out: Velvetleaf damage rating (100=total damage to plant; 0=no damage to plant); for pest or weed control at 62.5 g/ha: 62.5 g ai/ha, 100=total damage to plant, 0=no damage to plant, read-out: Velvetleaf damage rating; for pest or weed control at 250 g/ha: 250 g ai/ha
Summary of the method: as §2

corn (Zea mays) [11] = assay: Test G Pre-Emergence Protocol; conditions: Zea mays, pre-emergence, 312 h, evaluated after 13 days; for plant injury at 15.625 g/ha: 15.625 g ai/ha; for plant injury at 15.625 g/ha / plant injury at 250 g/ha: read-out: Corn damage rating (100=total damage to plant; 0=no damage to plant); for plant injury at 62.5 g/ha: 62.5 g ai/ha, 100=total damage to plant, 0=no damage to plant, read-out: Corn damage rating; for plant injury at 250 g/ha: 250 g ai/ha
Summary of the method: as §2

[12] = test system: redroot pigweed (Amaranthus retroflexus); assay: Test G Pre-Emergence Protocol; conditions: Amaranthus retroflexus, pre-emergence, 312 h, evaluated after 13 days; for pest or weed control at 15.625 g/ha: 15.625 g ai/ha; for pest or weed control at 15.625 g/ha / pest or weed control at 250 g/ha: read-out: Pigweed, Redroot damage rating (100=total damage to plant; 0=no damage to plant); for pest or weed control at 62.5 g/ha: 62.5 g ai/ha, 100=total damage to plant, 0=no damage to plant, read-out: Pigweed, Redroot damage rating; for pest or weed control at 250 g/ha: 250 g ai/ha
Summary of the method: as §2

With `COCCOc1cc([C@@H]2CN(C)C(=O)[C@H]2C(=O)Nc2cccc(F)c2C)ccc1C` (racemic) [Compound 1790] the pest or weed control at 15.625 g/ha [1] was 20%, the pest or weed control at 62.5 g/ha [1] was 20% and the pest or weed control at 250 g/ha [1] was 40%. The pest or weed control at 15.625 g/ha [2] was 70%, the pest or weed control at 62.5 g/ha [2] was 80% and the pest or weed control at 250 g/ha [2] was 80%. For the same compound, the pest or weed control at 15.625 g/ha [3] was 50%, the pest or weed control at 62.5 g/ha [3] was 70% and the pest or weed control at 250 g/ha [3] was 70%. The pest or weed control at 15.625 g/ha [4] was 0%, the pest or weed control at 62.5 g/ha [4] was 20% and the pest or weed control at 250 g/ha [4] was 30%. It also gave a plant injury at 15.625 g/ha (corn (Zea mays) [5]) of 50%, a plant injury at 62.5 g/ha (corn (Zea mays) [5]) of 70% and a plant injury at 250 g/ha (corn (Zea mays) [5]) of 80%. It also gave a pest or weed control at 15.625 g/ha [6] of 0%, a pest or weed control at 62.5 g/ha [6] of 0% and a pest or weed control at 250 g/ha [6] of 0%. It also gave a pest or weed control at 15.625 g/ha [7] of 0%, a pest or weed control at 62.5 g/ha [7] of 20% and a pest or weed control at 250 g/ha [7] of 70%. It also gave a pest or weed control at 15.625 g/ha [8] of 70%, a pest or weed control at 62.5 g/ha [8] of 70% and a pest or weed control at 250 g/ha [8] of 90%. It also gave a pest or weed control at 15.625 g/ha [9] of 40%, a pest or weed control at 62.5 g/ha [9] of 70% and a pest or weed control at 250 g/ha [9] of 90%. For the same compound, the pest or weed control at 15.625 g/ha [10] was 0%, the pest or weed control at 62.5 g/ha [10] was 0% and the pest or weed control at 250 g/ha [10] was 40%. For the same compound, the plant injury at 15.625 g/ha (corn (Zea mays) [11]) was 20%, the plant injury at 62.5 g/ha (corn (Zea mays) [11]) was 70% and the plant injury at 250 g/ha (corn (Zea mays) [11]) was 90%. The pest or weed control at 15.625 g/ha [12] was 0%, the pest or weed control at 62.5 g/ha [12] was 0% and the pest or weed control at 250 g/ha [12] was 10%.
Work on `Cc1c(F)cccc1NC(=O)[C@@H]1C(=O)N(C)C[C@H]1c1ccc2nonc2c1` (racemic) [Compound 1818] yielded a pest or weed control at 15.625 g/ha [1] of 0%, a pest or weed control at 62.5 g/ha [1] of 10% and a pest or weed control at 250 g/ha [1] of 40%. It also gave a pest or weed control at 15.625 g/ha [2] of 40%, a pest or weed control at 62.5 g/ha [2] of 80% and a pest or weed control at 250 g/ha [2] of 80%. The pest or weed control at 15.625 g/ha [3] was 0%, the pest or weed control at 62.5 g/ha [3] was 30% and the pest or weed control at 250 g/ha [3] was 80%. It also gave a pest or weed control at 15.625 g/ha [4] of 0%, a pest or weed control at 62.5 g/ha [4] of 0% and a pest or weed control at 250 g/ha [4] of 30%. For the same compound, the plant injury at 15.625 g/ha (corn (Zea mays) [5]) was 0%, the plant injury at 62.5 g/ha (corn (Zea mays) [5]) was 30% and the plant injury at 250 g/ha (corn (Zea mays) [5]) was 60%. The pest or weed control at 15.625 g/ha [6] was 0%, the pest or weed control at 62.5 g/ha [6] was 0% and the pest or weed control at 250 g/ha [6] was 0%. The pest or weed control at 15.625 g/ha [7] was 0%, the pest or weed control at 62.5 g/ha [7] was 10% and the pest or weed control at 250 g/ha [7] was 40%. For the same compound, the pest or weed control at 15.625 g/ha [8] was 70%, the pest or weed control at 62.5 g/ha [8] was 90% and the pest or weed control at 250 g/ha [8] was 90%. It also gave a pest or weed control at 15.625 g/ha [9] of 30%, a pest or weed control at 62.5 g/ha [9] of 30% and a pest or weed control at 250 g/ha [9] of 90%. For the same compound, the pest or weed control at 15.625 g/ha [10] was 0%, the pest or weed control at 62.5 g/ha [10] was 30% and the pest or weed control at 250 g/ha [10] was 70%. It also gave a plant injury at 15.625 g/ha (corn (Zea mays) [11]) of 0%, a plant injury at 62.5 g/ha (corn (Zea mays) [11]) of 0% and a plant injury at 250 g/ha (corn (Zea mays) [11]) of 70%. For the same compound, the pest or weed control at 15.625 g/ha [12] was 0%, the pest or weed control at 62.5 g/ha [12] was 0% and the pest or weed control at 250 g/ha [12] was 40%.
